{
  "source": "patent US7226754B2",
  "about": "“Kinase Wee1 fusion protein compositions, nucleotide sequences, expression systems, and methods of use” (The Scripps Research Institute, priority 1998, dated 2007)",
  "key": {"Cds1 [1]": {"test_system": "Cds1", "assay": "Cds1HAHIS autophosphorylation assay after HU treatment of cells", "format": "cell-based, Schizosaccharomyces pombe", "conditions": "Cds1HAHIS purified from HU or mock-treated cells", "description": "FIG. 3B is a photograph of an analysis of proteins which illustrates that HU activates Cds1 kinase activity. In a separate experiment Cds1^HAHIS was purified in native conditions and assayed for autophosphorylation activity (upper panel). Immunoblot analysis confirmed that similar amounts of Cds1HAHIS were recovered in the HU and mock-treated samples (lower panel).\nCds1^HAHIS was also purified from HU or mock-treated cells and assayed in an autophosphorylation assay. Phosphorylation of Cds1 was increased in samples from cells treated HU (FIG. 3B). Similar results were obtained using GST:Wee1^70 as a substrate. Thus HU apparently both activates Cds1 as a kinase and stimulates binding to Wee1."}, "[2]": {"test_system": "Schizosaccharomyces pombe", "assay": "Replication checkpoint: progression through mitosis of synchronous cultures in the presence of HU", "format": "cell-based", "conditions": "12 mM HU", "protocol": "FIGS. 5A–5B are graphs which illustrate that replication checkpoint is abolished in Cds1 chk1 cells as described in Example 2. […] Progression through mitosis in the presence of 12 mM HU was monitored by scoring binucleate or septated cells. The cds1 chk1 double mutant and rad3 cells underwent mitosis in the presence of HU, whereas division was arrested in control strains (wild-type, Cds1 and chk1 single mutants).\n(§1) The cell lysates were obtained from a variety of strains of S. pombe cells having the following genotypes: PR109, wild-type; NB2117, cds1::ura4+; NB2118, cds1:2HA6His:ura4+; NR1826, rad3::ura4+; OM591, cdc22-M45; NR1593, rad1::ura4+; NR1592,chk1::ura4+; BF1758, nmt1:GST:chk1:leu1+; BF1916, nmt1:GST:cds1:leu1+; OM2173, mik1:2HA6His:ura4+; OM2183, mik1:2HA6His:ura4+cds1::ura4+; PR712, mik1::ura4+; and BF2115, cds1::ura4+chk1::ura4+. All strains were leu1-32 ura4-D18. All nmt1 promoter constructs were integrated at the leu1-32 locus. Growth media and general methods for S. pombe have been described [Moreno et al, Meth. Enzymol., 194:795 (1991)]. Unless otherwise indicated, yeast cultures were grown in YES medium at 30 C. […]\nCells were first grown in YES (yeast extract and glucose) medium to an OD600 of 1.0 and then treated with HU (12 mM) for 90 min at 30 C. […] Cells were scored for progression through mitosis by microscopic observation. […]"}, "GST:Wee1": {"test_system": "GST:Wee1", "assay": "GST:Wee1 phosphorylation by associated kinase from lysates of HU-treated cells", "format": "cell-based, Schizosaccharomyces pombe", "conditions": "lysates of cells treated with 12 mM HU, 1 hr time course at 30° C.", "protocol": "FIG. 1B is a photograph of an analysis of proteins from cells that were treated with 12 mM HU for a 1 hr time course at 30° C. Cell lysates were incubated with GST:Wee1 proteins bound to GSH-Sepharose. The GSH-Sepharose was washed and assayed for associated kinase activity. The positions of GST:Wee1^152 and GST:Wee1^70 following 12% SDS-polyacrylamide gel electrophoresis are shown.\nThe GST:Wee1^152 and GST:Wee1^70 proteins prepared in Example 1 were used to study yeast cellular functions. To that end, the isolated proteins were bound to glutathione (GSH)-Sepharose and mixed with cell lysates from the fission yeast Schizosaccharomyces pombe (S. pombe) harvested at intervals during incubation with hydroxyurea (HU).\nas §1, with “locus.” for “locus. Growth media and general methods for S. pombe have been described [Moreno et al, Meth. Enzymol., 194:795 (1991)]. Unless otherwise indicated, yeast cultures were grown in YES medium at 30 C.”\nThe proteins bound to GSH-Sepharose were washed, incubated with [gamma-^32P]ATP and analyzed by SDS-polyacrylamide gel electrophoresis (FIG. 1B). […]"}, "Cds1 [3]": {"test_system": "Cds1", "assay": "Binding of Cds1HAHIS from cell lysates to GST:Wee1 (immunoblot)", "format": "cell-based, Schizosaccharomyces pombe", "conditions": "lysates of Cds1HAHIS cells treated 3.5 hr with HU vs mock-treated", "description": "FIGS. 3A–3D illustrate that HU stimulates Cds1 kinase activity, binding of Cds1 to GST:Wee1^70 in lysates and accumulation of Mik1 as described in Example 2. FIG. 3A is a photograph of an analysis of proteins which illustrates that HU stimulates Cds1 binding to GST:Wee1^70. A culture of cells expressing Cds1^HAHIS from the cds1 genomic locus was split and treated for 3.5 hr with HU or mock-treated. The cultures were split again and samples processed for Ni^2+-NTA purification of Cds1^HAHIS in denaturing conditions or purification of proteins that bind GST:Wee1 proteins in nondenaturing conditions. After extensive washing, samples were resolved by 10% SDS-polyacrylamide gel electrophoresis and subjected to immunoblot analysis.\nHU may increase the abundance of Cds1, or it may make Cds1 competent to associate with Wee1, or perhaps the replication checkpoint enhances the kinase activity of Cds1. Cells expressing Cds1^HAHIS were treated with HU or mock-treated; lysates were made and precipitated with GST:Wee1 proteins. Association of Cds1^HAHIS with GST:Wee1 was detected in lysates from cells treated with HU, whereas no Cds1^HAHIS associated with GST:Wee1 in mock-treated samples (FIG. 3A)."}, "Mik1": {"test_system": "Mik1", "assay": "Mik1HAHIS abundance in HU-treated cells (immunoblot)", "format": "cell-based, Schizosaccharomyces pombe", "conditions": "cells treated 4 hrs with 12 mM HU vs mock-treated", "protocol": "FIG. 3C is a photograph of an analysis of proteins which illustrates that Cds1 and Rad3-dependent increase in Mik1 abundance in HU-treated cells. Wild-type, Cds1 and rad3 cells in which genomic mik1 encoded Mik1^HAHIS protein were incubated for 4 hrs in YES at 25° C. with 12 mM HU or mock-treated. Mik1HARIS protein was purified by Ni^2+-NTA purification in denaturing conditions and detected by immunoblotting with antibodies to HA.\nPhosphorylation of Wee1 by Cds1 may play a role in the DNA replication checkpoint. However, wee1 mutants arrest division in response to HU (Enoch et al, Cell, 60:665, 1990), thus another protein that controls Cdc2 Tyr^15 phosphorylation must also be regulated by the replication checkpoint. The kinase Mik1 phosphorylates Cdc2 on Tyr^15 (Lundgren et al, Cell, 64:1111, 1991), therefore the abundance of Mik1 was monitored in HU-treated cells using a strain expressing Mik1^HAHIS from the genomic locus. […] The abundance of mik1 mRNA was unchanged in HU-treated cells, thus HU must influence Mik1 synthesis or turnover. […] Mik1 is a dose-dependent inhibitor of mitosis (Lundgren et al, Cell, 64:1111, 1991), thus the increase of Mik1 abundance in HU-treated cells should help to enforce the checkpoint."}, "[4]": {"test_system": "Schizosaccharomyces pombe", "assay": "HU sensitivity (survival) of S. pombe strains", "format": "cell-based", "conditions": "for sensitivity to killing by HU: 12 mM HU", "protocol": "FIG. 3D is a photograph of cell cultures which illustrates that Mikl is important for survival of HU treatment. Serial dilutions or wild-type and mik1 cells were plated in YES medium supplemented with 0 or 6 mM HU and incubated for 2 days at 30° C.\nCells were first grown in YES (yeast extract and glucose) medium to an OD600 of 1.0 and then treated with HU (12 mM) for 90 min at 30 C. Synchronous cells were then obtained by centrifugal elutriation with a Beckman JE-5.0 elutriation rotor. These cells were diluted to an OD600 of 0.3 in YES containing 12 mM HU and grown at 30 C. for a further 4 hr. Cells were scored for progression through mitosis by microscopic observation. HU sensitivity studies were carried out with cells grown to an OD600 of 0.3 in YES medium and then diluted to 13,000 cells/ml in YES media containing HU (12 mM), followed by growth at 30 C. for a further 8 hr. Samples (75 μl) were taken at regular intervals, plated onto YES plates and grown for 4 days at 30 C. to determine survival."}},
  "data": [
    {"smiles": "NC(=O)NO", "note": "[HU, hydroxyurea]", "values": [
      {"measurement": "phosphorylation of Cds1 (autophosphorylation)", "setting": "Cds1 [1]", "value": "increased"},
      {"measurement": "cell division in the presence of HU", "setting": "[2]; Cds1 chk1 double mutant cells", "value": "underwent division"},
      {"measurement": "cell division in the presence of HU", "setting": "[2]; wild-type cells, Cds1 and chk1 single mutants", "value": "arrested division"},
      {"measurement": "phosphorylation of GST:Wee1^152 and GST:Wee1^70", "setting": "GST:Wee1", "value": "increased"},
      {"measurement": "association of Cds1 with GST:Wee1", "setting": "Cds1 [3]", "value": "enhanced association"},
      {"measurement": "amount of Mik1HAHIS", "setting": "Mik1", "value": "increased"},
      {"measurement": "sensitivity to killing by HU", "setting": "[4]; Cds1 cells", "value": "moderately sensitive"},
      {"measurement": "sensitivity to killing by HU", "setting": "[4]; Cds1 chk1 double mutant cells", "value": "acutely sensitive to killing"},
      {"measurement": "sensitivity to HU", "setting": "[4]; mik1 mutants, YES medium with 0 or 6 mM HU, 2 days at 30° C.", "value": "enhanced sensitivity"},
      {"measurement": "sensitivity to killing by HU", "setting": "[4]; wild-type and chk1 cells", "value": "not sensitive"}
    ]}
  ]
}
